In patent publication US8697739B2, “Bicyclic acetyl-CoA carboxylase inhibitors and uses thereof” (Novartis AG, priority 2010, dated 2014):
pIC50: −log10 of the molar value.

target: T1, human acetyl-CoA carboxylase 2 (ACC2) (Homo sapiens, UniProt O00763); test: Acetyl-CoA carboxylase enzyme assay (malonyl-CoA formation by LC/MS/MS); assay type: biochemical; conditions: recombinant human ACC2 (aa 144-2458); read-out: IC50 ACC2
T1 construct: The cDNA encoding amino acids 144 to 2458 of human acetyl-CoA carboxylase 2; made in house; host or cells: Sf9 insect cells (baculovirus, pFastBac1)
T1 sequence (O00763 144-2458): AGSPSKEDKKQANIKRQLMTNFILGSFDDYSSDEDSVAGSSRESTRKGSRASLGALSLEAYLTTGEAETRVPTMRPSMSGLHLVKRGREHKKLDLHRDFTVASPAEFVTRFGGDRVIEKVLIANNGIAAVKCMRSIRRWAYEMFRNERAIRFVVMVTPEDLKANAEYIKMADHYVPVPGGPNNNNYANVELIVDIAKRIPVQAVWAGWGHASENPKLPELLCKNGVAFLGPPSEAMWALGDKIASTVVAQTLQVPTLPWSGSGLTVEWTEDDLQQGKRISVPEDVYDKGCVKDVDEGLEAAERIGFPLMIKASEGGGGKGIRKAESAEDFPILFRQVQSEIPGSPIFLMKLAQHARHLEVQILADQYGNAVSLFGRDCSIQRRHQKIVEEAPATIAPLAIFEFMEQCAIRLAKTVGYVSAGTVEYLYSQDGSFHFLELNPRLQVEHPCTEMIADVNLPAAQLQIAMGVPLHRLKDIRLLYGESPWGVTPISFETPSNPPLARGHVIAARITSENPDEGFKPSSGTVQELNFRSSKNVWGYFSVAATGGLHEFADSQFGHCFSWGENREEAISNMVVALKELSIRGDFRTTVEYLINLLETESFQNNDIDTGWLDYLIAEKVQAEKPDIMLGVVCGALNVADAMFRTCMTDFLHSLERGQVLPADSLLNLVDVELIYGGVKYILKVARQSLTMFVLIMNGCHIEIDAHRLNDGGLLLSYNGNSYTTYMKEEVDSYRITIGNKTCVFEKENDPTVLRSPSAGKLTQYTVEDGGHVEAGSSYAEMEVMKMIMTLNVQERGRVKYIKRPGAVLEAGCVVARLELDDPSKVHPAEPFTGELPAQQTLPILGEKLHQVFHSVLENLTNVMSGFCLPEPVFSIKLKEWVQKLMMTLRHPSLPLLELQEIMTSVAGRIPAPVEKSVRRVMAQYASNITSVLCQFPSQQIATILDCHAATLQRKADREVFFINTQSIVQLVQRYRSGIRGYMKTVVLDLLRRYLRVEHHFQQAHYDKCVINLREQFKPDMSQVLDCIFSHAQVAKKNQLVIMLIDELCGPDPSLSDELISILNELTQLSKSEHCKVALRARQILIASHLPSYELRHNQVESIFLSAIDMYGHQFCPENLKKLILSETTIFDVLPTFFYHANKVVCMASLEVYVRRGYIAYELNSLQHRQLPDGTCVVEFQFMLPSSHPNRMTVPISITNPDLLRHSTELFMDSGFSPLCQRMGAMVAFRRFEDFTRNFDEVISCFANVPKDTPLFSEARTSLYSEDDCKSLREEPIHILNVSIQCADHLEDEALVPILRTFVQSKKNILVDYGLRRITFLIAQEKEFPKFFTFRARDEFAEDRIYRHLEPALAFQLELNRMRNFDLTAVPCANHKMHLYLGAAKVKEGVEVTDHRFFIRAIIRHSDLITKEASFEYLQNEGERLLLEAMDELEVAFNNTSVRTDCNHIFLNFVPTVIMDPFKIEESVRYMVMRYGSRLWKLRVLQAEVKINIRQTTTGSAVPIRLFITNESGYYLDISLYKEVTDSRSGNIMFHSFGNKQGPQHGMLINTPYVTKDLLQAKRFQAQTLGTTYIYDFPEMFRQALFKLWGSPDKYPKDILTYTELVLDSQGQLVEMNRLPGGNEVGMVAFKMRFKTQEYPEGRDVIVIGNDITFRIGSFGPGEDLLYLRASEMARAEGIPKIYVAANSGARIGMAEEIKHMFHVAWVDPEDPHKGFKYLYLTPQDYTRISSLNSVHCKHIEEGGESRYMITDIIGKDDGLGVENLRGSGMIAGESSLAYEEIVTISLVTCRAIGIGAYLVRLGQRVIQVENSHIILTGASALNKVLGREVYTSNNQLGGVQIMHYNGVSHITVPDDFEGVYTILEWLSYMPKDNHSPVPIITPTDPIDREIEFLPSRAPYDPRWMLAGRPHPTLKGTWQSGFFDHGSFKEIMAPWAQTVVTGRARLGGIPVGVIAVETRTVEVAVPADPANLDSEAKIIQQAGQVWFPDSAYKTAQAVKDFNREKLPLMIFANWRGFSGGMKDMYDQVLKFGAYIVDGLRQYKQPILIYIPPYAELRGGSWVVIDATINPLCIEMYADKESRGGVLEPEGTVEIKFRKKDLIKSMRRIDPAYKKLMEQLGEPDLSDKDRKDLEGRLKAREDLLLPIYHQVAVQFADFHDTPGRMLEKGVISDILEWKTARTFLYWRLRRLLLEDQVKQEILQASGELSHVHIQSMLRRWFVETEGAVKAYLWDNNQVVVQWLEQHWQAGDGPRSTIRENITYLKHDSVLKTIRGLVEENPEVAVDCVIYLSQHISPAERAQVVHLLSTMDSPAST
Procedure, shortened: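 Malonyl-CoA formation was read by LC/MS/MS MRM against a [13C3]-malonyl-CoA internal standard, after acetic acid quench. The enzyme was baculovirus/Sf9-expressed human ACC2 residues 144–2458, given 15 minutes room-temperature compound preincubation in HEPES pH 7.5 buffer with MgCl2, citrate and DTT. Substrate solution held 50 μM acetyl-CoA, 120 μM ATP and 2 mM KHCO3.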

pIC50 | SMILES
> 8.00 | COc1ccc(-c2cc3ccc(S(=O)(=O)N[C@H]4CC[C@H](C(=O)N5CCOC[C@@H]5C5CC5)CC4)cc3n2C)cc1 [Example 454, N-((1S,4r)-4-((S)-3-cyclopropylmorpholine-4-carbonyl)cyclohexyl)-2-(4-methoxyphenyl)-1-methyl-1H-indole-6-sulfonamide]
6.41 | C[C@@H](NC(=O)[C@H]1CC[C@H](NS(=O)(=O)c2cnc3c(c2)OCCN3C)CC1)c1ccc(F)cc1 [Example 127, (1r-4R)-N-((R)-1-(4-fluorophenyl)ethyl)-4-(4-methyl-3,4-dihydro-2H-pyrido[3,2-b][1,4]oxazine-7-sulfonamido)cyclohexanecarboxamide]
6.25 | Cn1c(C2CC2)cc2ccc(S(=O)(=O)N[C@H]3CC[C@H](C(=O)N4CCNC(C(F)(F)F)C4)CC3)cc21 (stereo partly shown) [Example 356, 2-cyclopropyl-1-methyl-N-((1r,4r)-4-(3-(trifluoromethyl)piperazine-1-carbonyl)cyclohexyl)-1H-indole-6-sulfonamide]
6.47 | CC(NC(=O)[C@H]1CC[C@H](NS(=O)(=O)c2ccc3c(c2)N(C)CCC3)CC1)c1ccncc1 (stereo partly shown) [Example 161, (1r,4r)-4-(1-methyl-1,2,3,4-tetrahydroquinoline-7-sulfonamido)-N-(1-(pyridin-4-yl)ethyl)cyclohexanecarboxamide]
6.04 | Cn1ccc2cc(S(=O)(=O)NC3CCC(C)(C(=O)N4CCOCC4)CC3)ccc21 (stereo not shown) [Example 385, 1-methyl-N-(4-methyl-4-(morpholine-4-carbonyl)cyclohexyl)-1H-indole-5-sulfonamide]
6.95 | C[C@@H](NC(=O)[C@H]1CC[C@H](NS(=O)(=O)c2cnc3ccccc3c2)CC1)c1ccc(Cl)cc1 [Example 57, (1r,4R)-N-((R)-1-(4-chlorophenyl)ethyl)-4-(quinoline-3-sulfonamido)cyclohexanecarboxamide]
> 8.00 | COCCc1ccc(-c2cc3ccc(S(=O)(=O)N[C@H]4CC[C@H](C(=O)N5CCOC[C@@H]5C5CC5)CC4)cc3[nH]2)cc1 [Example 470, N-((1S,4r)-4-((S)-3-cyclopropylmorpholine-4-carbonyl)cyclohexyl)-2-(4-(2-methoxyethyl)phenyl)-1H-indole-6-sulfonamide]
6.24 | CC(C)N1CCNc2ncc(S(=O)(=O)N[C@H]3CC[C@H](C(=O)N[C@H](C)c4ccc(F)cc4)CC3)cc21 [Example 141, (1r,4R)-N-((R)-1-(4-fluorophenyl)ethyl)-4-(1-isopropyl-1,2,3,4-tetrahydropyrido[3,2-b]pyrazine-7-sulfonamido)cyclohexanecarboxamide]
4.65 | CC(C)OC(=O)c1ccc(NS(=O)(=O)c2ccc3nc(-c4ccc(Oc5ccccc5)cc4)[nH]c3c2)cc1 [Example 507, isopropyl 4-(2-(4-phenoxyphenyl)-1H-benzo[d]imidazole-6-sulfonamido)benzoate]
5.04 | C[C@@H](NC(=O)[C@H]1CC[C@H](NS(=O)(=O)c2cnc3ccccc3c2)CC1)c1ccccc1C(F)(F)F [Example 46, (1r,4R)-4-(quinoline-3-sulfonamido)-N-((R)-1-(2-(trifluoromethyl)phenyl)ethyl)cyclohexanecarboxamide]
< 3.86 | O=C(Nc1ccccc1)c1ccc(NS(=O)(=O)c2ccc3[nH]c(-c4ccccc4)nc3c2)cc1 [Example 490, N-phenyl-4-(2-phenyl-1H-benzo[d]imidazole-5-sulfonamido)benzamide]
> 8.00 | O=C([C@H]1CC[C@H](NS(=O)(=O)c2ccc3c(c2)Cc2ccccc2-3)CC1)N1CCNC[C@@H]1c1ccccc1 [Example 244, N-((1S,4r)-4-((S)-2-phenylpiperazine-1-carbonyl)cyclohexyl)-9H-fluorene-2-sulfonamide]
7.60 | CC(C)OC(=O)[C@H]1CC[C@H](NS(=O)(=O)c2ccc3[nH]c(-c4ccc(C(C)O)cc4)nc3c2)CC1 (stereo partly shown) [Example 556, (1r,4r)-isopropyl 4-(2-(4-(1-hydroxyethyl)phenyl)-1H-benzo[d]imidazole-5-sulfonamido)cyclohexanecarboxylate]
